Data on one compound can be found in paper PMC11123956, “Nobiletin Stimulates Adrenal Hormones and Modulates the Circadian Clock in Mice” (Nutrients, 2024).

Molecules are shown by their SMILES.

One assay concerns the target T1, PDE3A (Homo sapiens, UniProt Q14432).
T1 construct: purchased Eurofins Panlabs Discovery Services Taiwan, Ltd. (contract assay); host or cells: insect Sf9 cells
Nature of the assay: PDE enzyme  assay, PDE3A. In kind it is biochemical. As to the method:
(§1) Enzyme assays for various subtypes of PDE (Table 1 and Figure 4) were conducted by Eurofins Panlabs Discovery Services Taiwan, Ltd. (New Taipei City, Taiwan). In the assays, five or six concentrations of nobiletin over five or six orders of magnitude were examined in experiments conducted in duplicate to determine the IC50 (concentration of nobiletin exerting half-maximal inhibition of control-specific activity). IC50 values were determined by nonlinear least squares regression analysis using MathIQTM (ID Business Solutions Ltd., Woking, UK). FAM-cAMP, FAM-cGMP (0.1 μM), and 100 μM [^3H]cGMP + cGMP were used for the substrate in the human recombinant insect Sf9 cells or Bovine retinal rod outer segments depending on the PDE subtype. The spectrofluorometric quantitation of fluorescein-AMP-IMAP, fluorescein-GMP-IMAP, or [^3H] guanosine was used depending on the PDE subtype. A known […] of each PDE was used as the positive control.

A further assay deals with T2, PDE4A1A (Homo sapiens, UniProt P27815).
T2 construct: purchased Eurofins Panlabs Discovery Services Taiwan, Ltd. (contract assay); host or cells: insect Sf9 cells
As to the kind of experiment: PDE enzyme (kinase) assay, PDE4A1A. The format is biochemical. On the procedure: as §1
Figure 4 PDE kinase assays and the acute clock gene expression changes by PDE4 inhibitor or ROR α/γ agonist. (A) Inhibitory effect of nobiletin on PDE4A1, 4B1, and 10A2. Various concentrations of nobiletin (1–100 μM) were used for IC50 determination (Table 1). Values represent the mean of two experiments. Positive controls were rolipram for PDE4A1 and 4B1 and papaverine for PDE10A2. […]

Another assay deals with T3, PDE6 (Bos taurus, UniProt P11541+P23439).
T3 construct: Bovine retinal rod outer segments; tissue Eurofins Panlabs Discovery Services Taiwan, Ltd. (contract assay); host or cells: bovine retinal rod outer segments
Nature of the assay: PDE enzyme  assay, PDE6. In kind it is biochemical, Bovine. As to the method: as §1

Another assay deals with T4, PDE7B (Homo sapiens, UniProt Q9NP56).
T4 construct: purchased Eurofins Panlabs Discovery Services Taiwan, Ltd. (contract assay); host or cells: insect Sf9 cells
Nature of the assay: PDE enzyme  assay, PDE7B. In kind it is biochemical. On the procedure: as §1

The subject of another assay is CRF in the hypothalamus. As to the kind of experiment: CRF in the hypothalamus ELISA. In kind it is in vivo, mice. The note with it: an hour after injection (50 or 100 mg/kg). On the procedure:
Serum corticosterone, adrenaline, and adreno-corticotropic hormone (ACTH) levels, and corticotropin releasing factor (CRF) in the hypothalamus, were measured using enzyme-linked immunosorbent assay (ELISA). A corticosterone ELISA kit (Cayman Chemical Company, Ann Arbor, MI, USA), an adrenaline ELISA kit (Abcam, Cambridge, UK), an ACTH ELISA kit (Phoenix Pharmaceuticals Inc., Burlingame, CA, USA), and a CRF ELISA kit (Yanaihara Institute Inc., Shizuoka, Japan) were used. Assays were conducted according to the manufacturer’s instructions. Blood samples were collected from the mice at ZT4, 5, and 7 after the administration of nobiletin at ZT3 (10 mg/kg and 100 mg/kg, in Figure 3A,B). Blood glucose levels were measured using a Glucose PILOT kit (Aventir Biotech, LLC, Carlsbad, CA, USA). The range of blood glucose that could be precisely measured with the kit was 20–600 mg/dL. Before measurement, we administered nobiletin (100 mg/kg body weight) to the mice, after 4 h fasting. Blood was collected from the tail vein of each mouse for measurement. The measurements were conducted at 0, 15, 30, 45, 60, and 90 min after reagent administration in Figure 3C. Samples were collected one hour after nobiletin treatment (50 or 100 mg/kg; Figure 3D,E), or 2 or 4 h after treatment in Figure 3F. […]

T2 sequence (P27815 1-647 isoform P27815-4): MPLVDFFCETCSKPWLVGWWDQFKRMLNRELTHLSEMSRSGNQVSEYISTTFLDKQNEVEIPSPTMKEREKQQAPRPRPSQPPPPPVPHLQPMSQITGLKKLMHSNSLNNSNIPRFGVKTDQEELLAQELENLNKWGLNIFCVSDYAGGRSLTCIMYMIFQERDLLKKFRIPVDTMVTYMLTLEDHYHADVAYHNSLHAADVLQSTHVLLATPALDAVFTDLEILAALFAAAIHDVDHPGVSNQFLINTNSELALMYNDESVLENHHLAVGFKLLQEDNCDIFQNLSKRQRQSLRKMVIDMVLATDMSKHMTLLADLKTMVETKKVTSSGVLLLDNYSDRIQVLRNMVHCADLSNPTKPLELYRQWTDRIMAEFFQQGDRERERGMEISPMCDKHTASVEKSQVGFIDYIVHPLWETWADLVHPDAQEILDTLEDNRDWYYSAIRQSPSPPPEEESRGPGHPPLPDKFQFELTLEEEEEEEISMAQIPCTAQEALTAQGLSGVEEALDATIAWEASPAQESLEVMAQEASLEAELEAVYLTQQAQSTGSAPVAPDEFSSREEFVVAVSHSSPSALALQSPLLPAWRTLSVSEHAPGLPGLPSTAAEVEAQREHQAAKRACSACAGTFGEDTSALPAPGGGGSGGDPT
T1 sequence (Q14432 whole entry): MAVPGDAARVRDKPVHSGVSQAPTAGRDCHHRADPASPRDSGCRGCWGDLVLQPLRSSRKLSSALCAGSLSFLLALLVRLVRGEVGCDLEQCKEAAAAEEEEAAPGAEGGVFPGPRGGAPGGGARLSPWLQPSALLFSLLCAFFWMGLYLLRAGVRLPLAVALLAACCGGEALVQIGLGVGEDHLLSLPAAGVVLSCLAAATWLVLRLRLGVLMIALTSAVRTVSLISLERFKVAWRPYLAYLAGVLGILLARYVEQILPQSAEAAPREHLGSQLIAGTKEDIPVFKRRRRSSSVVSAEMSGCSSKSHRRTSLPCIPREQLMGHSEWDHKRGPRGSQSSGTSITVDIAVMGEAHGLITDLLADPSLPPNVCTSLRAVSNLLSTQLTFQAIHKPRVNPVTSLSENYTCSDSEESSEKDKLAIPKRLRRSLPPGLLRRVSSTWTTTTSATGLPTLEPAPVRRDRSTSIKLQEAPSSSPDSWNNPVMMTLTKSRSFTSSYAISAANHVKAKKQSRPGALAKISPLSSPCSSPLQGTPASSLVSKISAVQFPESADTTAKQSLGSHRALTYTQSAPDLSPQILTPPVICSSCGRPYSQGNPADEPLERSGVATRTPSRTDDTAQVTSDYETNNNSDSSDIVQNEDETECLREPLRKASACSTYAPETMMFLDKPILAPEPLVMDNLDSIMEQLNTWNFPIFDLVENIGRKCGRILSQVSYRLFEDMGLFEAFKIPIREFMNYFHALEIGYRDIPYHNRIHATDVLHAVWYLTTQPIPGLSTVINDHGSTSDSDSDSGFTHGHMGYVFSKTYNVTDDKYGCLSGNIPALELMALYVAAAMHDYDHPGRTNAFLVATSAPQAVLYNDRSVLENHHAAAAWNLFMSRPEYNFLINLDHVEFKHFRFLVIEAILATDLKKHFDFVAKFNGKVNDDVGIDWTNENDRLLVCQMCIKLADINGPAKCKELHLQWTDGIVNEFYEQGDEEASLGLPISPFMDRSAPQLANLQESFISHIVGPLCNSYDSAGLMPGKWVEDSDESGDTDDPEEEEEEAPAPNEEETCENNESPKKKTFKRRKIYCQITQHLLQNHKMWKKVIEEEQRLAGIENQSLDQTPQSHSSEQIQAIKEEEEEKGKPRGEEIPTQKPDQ
T4 sequence (Q9NP56 whole entry): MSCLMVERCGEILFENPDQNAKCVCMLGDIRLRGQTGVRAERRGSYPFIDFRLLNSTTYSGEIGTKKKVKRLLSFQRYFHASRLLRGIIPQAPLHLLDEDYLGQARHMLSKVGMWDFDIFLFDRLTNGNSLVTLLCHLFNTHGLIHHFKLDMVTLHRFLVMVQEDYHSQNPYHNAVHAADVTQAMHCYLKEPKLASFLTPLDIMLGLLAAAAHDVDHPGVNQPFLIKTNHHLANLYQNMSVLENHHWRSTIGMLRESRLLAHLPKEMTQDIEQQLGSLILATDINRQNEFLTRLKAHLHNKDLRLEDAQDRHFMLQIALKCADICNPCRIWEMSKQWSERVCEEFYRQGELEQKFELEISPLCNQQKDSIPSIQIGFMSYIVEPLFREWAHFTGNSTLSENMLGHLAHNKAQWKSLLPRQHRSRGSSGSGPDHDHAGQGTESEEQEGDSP
T3 sequence (P11541 2-856 limits assumed): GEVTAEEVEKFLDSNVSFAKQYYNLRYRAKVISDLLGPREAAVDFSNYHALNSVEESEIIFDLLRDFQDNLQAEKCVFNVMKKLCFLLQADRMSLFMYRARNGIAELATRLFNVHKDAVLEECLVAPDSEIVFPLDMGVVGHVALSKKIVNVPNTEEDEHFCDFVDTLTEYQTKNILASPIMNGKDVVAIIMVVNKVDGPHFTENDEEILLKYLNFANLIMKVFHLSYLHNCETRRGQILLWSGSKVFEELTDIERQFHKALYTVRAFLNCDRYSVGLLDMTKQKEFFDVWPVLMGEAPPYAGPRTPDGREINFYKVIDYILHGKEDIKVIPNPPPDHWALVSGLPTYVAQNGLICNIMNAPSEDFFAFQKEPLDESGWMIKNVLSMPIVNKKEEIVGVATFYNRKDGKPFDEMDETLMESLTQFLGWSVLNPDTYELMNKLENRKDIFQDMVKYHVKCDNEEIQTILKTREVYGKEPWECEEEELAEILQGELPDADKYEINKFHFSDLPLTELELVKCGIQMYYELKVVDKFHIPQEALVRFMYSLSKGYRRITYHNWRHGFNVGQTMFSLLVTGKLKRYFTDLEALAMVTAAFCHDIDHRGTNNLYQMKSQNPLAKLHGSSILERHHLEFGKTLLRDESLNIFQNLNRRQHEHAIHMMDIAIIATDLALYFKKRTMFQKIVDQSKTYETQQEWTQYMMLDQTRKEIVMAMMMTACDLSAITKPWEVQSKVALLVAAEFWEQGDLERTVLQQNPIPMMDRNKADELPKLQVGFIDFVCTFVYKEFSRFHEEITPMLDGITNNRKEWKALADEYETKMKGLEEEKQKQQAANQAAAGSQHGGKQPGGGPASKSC
T3 sequence (P23439 2-850 limits assumed): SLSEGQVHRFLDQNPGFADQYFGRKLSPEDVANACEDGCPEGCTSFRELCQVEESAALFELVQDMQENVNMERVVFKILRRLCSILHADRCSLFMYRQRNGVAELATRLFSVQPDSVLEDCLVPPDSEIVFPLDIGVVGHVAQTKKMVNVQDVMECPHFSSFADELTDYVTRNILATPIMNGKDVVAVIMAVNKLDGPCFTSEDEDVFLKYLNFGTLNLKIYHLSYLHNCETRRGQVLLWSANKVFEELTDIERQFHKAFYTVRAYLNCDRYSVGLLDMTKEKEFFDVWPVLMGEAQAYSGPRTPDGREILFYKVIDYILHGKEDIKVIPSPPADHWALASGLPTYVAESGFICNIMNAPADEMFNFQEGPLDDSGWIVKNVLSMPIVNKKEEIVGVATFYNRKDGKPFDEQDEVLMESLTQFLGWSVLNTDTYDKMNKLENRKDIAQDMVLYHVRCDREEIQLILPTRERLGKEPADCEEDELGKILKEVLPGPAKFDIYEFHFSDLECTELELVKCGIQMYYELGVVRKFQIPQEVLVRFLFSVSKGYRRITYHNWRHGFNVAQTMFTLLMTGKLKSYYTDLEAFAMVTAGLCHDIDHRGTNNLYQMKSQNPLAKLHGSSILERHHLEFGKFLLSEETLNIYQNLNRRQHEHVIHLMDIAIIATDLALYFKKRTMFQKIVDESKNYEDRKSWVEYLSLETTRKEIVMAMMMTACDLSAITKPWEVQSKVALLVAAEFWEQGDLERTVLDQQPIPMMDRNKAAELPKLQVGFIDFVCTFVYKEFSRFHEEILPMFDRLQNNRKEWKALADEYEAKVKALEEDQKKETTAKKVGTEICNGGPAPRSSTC

By IC50 is commonly meant the point on the concentration scale where inhibition reaches its midpoint. Low values mean greater potency in that assay, high ones weaker potency in that assay. Take `COc1ccc(-c2cc(=O)c3c(OC)c(OC)c(OC)c(OC)c3o2)cc1OC` [nobiletin]: the half-inhibitory concentration (IC50) is 16 µM against PDE3A; ≤ 6.03 µM against PDE4A1A (IC50, PDE4A1A, bound stated in the discussion); 5.23 µM on PDE4A1A (IC50 Dose, PDE4A1A, duplicate); 74.5 µM at PDE6; 20.4 µM against PDE7B. Besides, in the assay on CRF in the hypothalamus, the “CRF in the hypothalamus” value is “did not change significantly”.
